Results published in patent US4737513A, “Novel pyrrole derivatives” (Roussel Uclaf, priority 1984, dated 1988).

What was measured:
Format in all cases: in vivo
house flies = experiment: Study of knock-down activity of house flies (direct atomization in a Kearns and March chamber); settings: for KT 50: concentration at 0.1 g/l, female house flies 4 days old, acetone (5%) and Isopar L; for knock-down power: general statement in the description
Description: (1) Study of knock-down activity of house flies
The test insects were female house flies 4 days old and the test was effected by direct atomization in a Kearns and March chamber using as solvent a mixture of acetone (5%) and Isopar L (petrol solvent) (quantity of solvent used, 2 ml in one second). 50 insects were used per treatment and checks were made every minute for 10 minutes, then at 15 minutes, and the KT50 was determined by the usual methods.

[1] = system: cockroaches (Blatella germanica); experiment: Study of activity by tarsal contact on cockroaches; settings: male Blatella germanica; 1 hour on dried acetone deposit; mortality checked at 24 hours, 48 hours, 3 days and 5 days
Description: (2) Study of activity by tarsal contact on cockroaches
The insects tested were male cockroaches (Blatella germanica) and the test was carried out by depositing an acetone solution of a certain concentration on the bottom of a Petri dish 20 cm in diameter. After this had dried, 20 male cockroaches were allowed to stay there per concentration for 1 hour, after which they were transferred to a healthy medium and their mortality was checked at 24 hours, 48 hours, 3 days and 5 days. The result was expressed as lethal concentration 50 (LC 50) in mg/m^2.

Tetranychus urticae = experiment: Activity on Tetranychus urticae, test of lethal effect on adults; settings: for LD 50: females on treated bean leaves, checked after 80 hours of contact
Description: (4) Activity on Tetranychus urticae, test of lethal effect on adults
Bean plants having two cotyledon leaves were used which were treated with a Fisher gun with an acetone solution of the product. After drying, 25 females of the acaridan Tetranychus urticae were placed on each leaf, that is 50 individuals per experimental dose per plant. The efficacity was checked after 80 hours of contact, and the LD 50 was indicated in mg/hl.

Compound: CCOC(=O)/C(F)=C\[C@H]1[C@@H](C(=O)OCc2cc(C#N)n(C/C=C\Cl)c2)C1(C)C [Example 65, [2-cyano-[1-(3-chloro-2-(Z)-propenyl]-1H-pyrrol-4-yl]-methyl (1R,cis,ΔE) 2,2-dimethyl-3-(2-fluoro-3-ethoxy-3-oxo-1-propenyl)-cyclopropane carboxylate]
- KT 50 (house flies): 3.1 min

Compound: C#CCn1ccc(COC(=O)[C@@H]2[C@H](/C=C(/F)C(=O)OCC)C2(C)C)c1C#N [Example 52, [1-(2-propynyl)-2-cyano-1H-pyrrol-3-yl]methyl (1R,cis) 2,2-dimethyl-3-(2-fluoro-2-ethoxy-2-oxo-1-propenyl)cyclopropane carboxylate]
- KT 50 (house flies): 1.5 min

Compound: C#CCn1ccc(COC(=O)[C@@H]2[C@H](/C=C\C(=O)OC)C2(C)C)c1 [Example 1, [1-(2-propynyl)-1H-pyrrol-3-yl]-methyl (1R,cisΔZ) 2,2-dimethyl-3-(3-methoxy-3-oxo-1-propenyl)-cyclopropane carboxylate]
- KT 50 (house flies): 1.3 min
- knock-down power (house flies): particularly remarkable

Compound: C#CCn1cc(C(C#N)OC(=O)[C@@H]2[C@H](/C=C(/F)C(=O)OCC)C2(C)C)cc1C#N (stereo partly drawn) [Example 44]
- KT 50 (house flies): 2.2 min

Compound: C=CCn1cc(COC(=O)[C@@H]2[C@H](C=C(Br)Br)C2(C)C)cc1C#N (relative stereo) [Example 54, [1-(2-propenyl)-2-cyano-1H-pyrrol-4-yl]methyl (1R,cis) 2,2-dimethyl-3-(2,2-dibromoethenyl)-cyclopropane carboxylate]
- KT 50 (house flies): 4.7 min

Compound: C#CCn1ccc(COC(=O)[C@@H]2[C@H](/C=C(/F)C(=O)OC(C)(C)C)C2(C)C)c1 [Example 5, [1-(2-propynyl)-1H-pyrrol-3-yl]-methyl (1R,cis,ΔE) 2,2-dimethyl-3-(3-tert-butoxy-3-oxo-2-fluoro-1-propenyl)-cyclopropane carboxylate]
- KT 50 (house flies): 3.2 min

Compound: C#CCn1ccc(COC(=O)[C@@H]2[C@H](/C=C(/F)C(=O)OCC)C2(C)C)c1 [Example 2, [1-(2-propynyl)-1H-pyrrol-3-yl]-methyl (1R,cisΔE) 2,2-dimethyl-3-(3-ethoxy-3-oxo-2-fluoro-1-propenyl)-cyclopropane carboxylate]
- KT 50 (house flies): 1.6 min
- knock-down power (house flies): particularly remarkable

Compound: C#CCn1ccc(COC(=O)[C@@H]2[C@H](C=C(Br)Br)C2(C)C)c1 (relative stereo) [Example 6, [1-(2-propynyl)-1H-pyrrol-3-yl]-methyl (1R,cis) 2,2-dimethyl-3-(-dibromoethenyl)-cyclopropane carboxylate]
- KT 50 (house flies): 4.7 min

Compound: C#CCn1ccc(COC(=O)[C@@H]2[C@H](C=C(Br)Br)C2(C)C)c1C#N [Example 26]
- KT 50 (house flies): 3.5 min

Compound: C#CCn1ccc(C(C#N)OC(=O)[C@@H]2[C@H](/C=C(/F)C(=O)OCC)C2(C)C)c1 (stereo partly drawn) [Example 15, cyano-[1-(2-propynyl)-1H-pyrrol-3-yl]-methyl (1R,cisΔE) 2,2-dimethyl-3-(3-ethoxy-3-oxo-2-fluoro-1-propenyl)-cyclopropane carboxylate]
- KT 50 (house flies): 1.8 min
- knock-down power (house flies): particularly remarkable

Compound: C#CCn1ccc(COC(=O)[C@@H]2[C@H](/C=C\C(=O)OC)C2(C)C)c1C#N [Example 51, [1-(2-propynyl)-2-cyano-1H-pyrrol-3-yl]methyl (1R,cis) 2,2-dimethyl-3-(3-methoxy-3-oxo-1-propenyl)cyclopropane carboxylate]
- KT 50 (house flies): 1.9 min

Compound: C#CCn1cc(C(C#C)OC(=O)[C@@H]2[C@H](/C=C(/F)C(=O)OCC)C2(C)C)cc1C#N (stereo partly drawn) [Example 57, [1-(2-propynyl)-2-cyano-1H-pyrrol-4-yl]-propyn-2-yl (1R,cisΔE) 2,2-dimethyl-3-[2-fluoro-3-ethoxy-3-oxo-1-propenyl]-cyclopropane carboxylate]
- KT 50 (house flies): 4.0 min

Compound: C#CCn1ccc(COC(=O)[C@@H]2[C@H](/C=C(/F)C(=O)OC)C2(C)C)c1 [Example 4, [1-(2-propynyl)-1H-pyrrol-3-yl]-methyl (1R,cisΔE) 2,2-dimethyl-3-(3-methoxy-3-oxo-2-fluoro-1-propenyl)-cyclopropane carboxylate]
- KT 50 (house flies): 2.4 min

Compound: C#CCn1cc(C(C)OC(=O)[C@@H]2[C@H](/C=C(/F)C(=O)OCC)C2(C)C)cc1C#N (stereo partly drawn) [Example 60, [1-(2-propynyl)-2-cyano-1H-pyrrol-4-yl]-ethyl (1R,cisΔE) 2,2-dimethyl-3-(2-fluoro-3-ethoxy-3-oxo-1-propenyl)-cyclopropane carboxylate]
- KT 50 (house flies): 1.8 min

Compound: C#CCn1cc(COC(=O)[C@@H]2[C@H](/C=C(/F)C(=O)OCC)C2(C)C)c(C(F)(F)F)c1 [Example 72, [1-(2-propynyl)-3,3,3-trifluoromethyl-1H-pyrrol-4-yl]methyl (1R,cis,ΔE) 2,2-dimethyl-3-[2-fluoro-3-ethoxy-3-oxo-1-propenyl]-cyclopropane carboxylate]
- KT 50 (house flies): 3.8 min
- lethal concentration 50 (LC 50) [1]: 6.7 mg/m^2

Compound: C=CCn1cc(C(C#N)OC(=O)[C@@H]2[C@H](C=C(Br)Br)C2(C)C)cc1C#N (stereo partly drawn) [Example 55, (R,S)-cyano-[1-(2-propenyl)-2-cyano-1H-pyrrol-4-yl]-methyl (1R,cis) 2,2-dimethyl-3-(2,2-dibromoethenyl)-cyclopropane carboxylate]
- KT 50 (house flies): 8.7 min

Compound: C=CCn1ccc(COC(=O)[C@@H]2[C@H](/C=C(/F)C(=O)OCC)C2(C)C)c1 [Example 56, 1-(2-propenyl-1H-pyrrol-3-yl)-methyl (1R,cisΔE) 2,2-dimethyl-3-(2-fluoro-3-ethoxy 3-oxo-1-propenyl)-cyclopropane carboxylate]
- KT 50 (house flies): 4.0 min

Compound: C#CCn1ccc(COC(=O)[C@@H]2[C@H](/C=C\C(=O)OC(C)(C)C)C2(C)C)c1 [Example 3, [1-(2-propynyl)-1H-pyrrol-3-yl]-methyl (1R,cis,ΔZ) 2,2-dimethyl-3-(3-tert-butyloxy-3-oxo-1-propenyl)-cyclopropane carboxylate]
- KT 50 (house flies): 5.8 min

Compound: C#CCn1cc(COC(=O)[C@@H]2[C@H](/C=C(/F)C(=O)OCC)C2(C)C)cc1C(F)(F)F [Example 70, [1-(2-propynyl)-2,2,2-trifluoromethyl-1H-pyrrol-4-yl]-methyl (1R,cis,ΔE) 2,2-dimethyl-3-[2-fluoro-3-ethoxy-3-oxo-1-propenyl]-cyclopropane carboxylate]
- KT 50 (house flies): 3.9 min
- lethal concentration 50 (LC 50) [1]: 4.5 mg/m^2
- LD 50 (Tetranychus urticae): 2126 mg/hl

Compound: C#CCn1ccc(C(C#N)OC(=O)[C@@H]2[C@H](/C=C(/F)C(=O)OCC)C2(C)C)c1C#N (stereo partly drawn) [Example 67, (R,S) cyano[1-(2-propynyl)-2-cyano-1H-pyrrol-3-yl]-methyl (1R,cisΔE) 2,2-dimethyl-3-(2-fluoro-3-ethoxy-3-oxo-1-propenyl)-cyclopropane carboxylate]
- KT 50 (house flies): 3.8 min

Compound: C=CCn1cc(COC(=O)[C@@H]2[C@H](/C=C(/F)C(=O)OCC)C2(C)C)cc1C#N [Example 53, [1-(2-propenyl)-2-cyano-1H-pyrrol-4-yl]methyl (1R,cisΔE) 2,2-dimethyl-3-[2-fluoro-2-ethoxy-2-oxo-1-propenyl]cyclopropane carboxylate]
- KT 50 (house flies): 2.4 min

Compound: C=CCn1ccc(C(C#N)OC(=O)[C@@H]2[C@H](C=C(Br)Br)C2(C)C)c1 (stereo partly drawn) [Example 50, (R,S)-cyano-[1-(2-propenyl)-1H-pyrrol-3-yl]methyl (1R,cis) 2,2-dimethyl-3-(2,2-dibromoethenyl)cyclopropane carboxylate]
- KT 50 (house flies): 3.5 min

Compound: C#CCn1ccc(COC(=O)[C@@H]2[C@H](/C=C(/F)C(=O)OC(C)(C)C)C2(C)C)c1C(F)(F)F [Example 40, [2-trifluoromethyl-1-(2-propynyl)-1H-pyrrol-3-yl]-methyl (1R,cis,ΔE) 2,2-dimethyl-3-(3-tertbutyloxy-3-oxo-2-fluoropenyl)-cyclopropane carboxylate]
- KT 50 (house flies): 5.6 min
- knock-down power (house flies): particularly remarkable
- acaricidal effect on Tetranychus urticae (Tetranychus urticae; conclusion of the test): remarkable acaricidal effect
- LD 50 (Tetranychus urticae): 32 mg/hl

Compound: CCOC(=O)/C(F)=C\[C@H]1[C@@H](C(=O)OCc2cc(C#N)n(C/C=C/Cl)c2)C1(C)C [Example 66, [2-cyano-1-[3-chloro-2-(E)-propenyl]-1H-pyrrol-4-yl]-methyl (1R,cisΔE) 2,2-dimethyl-3-[2-fluoro-3-ethoxy-3-oxo-1-propenyl]-cyclopropane carboxylate]
- KT 50 (house flies): 7.9 min

Compound: C#CCn1cc(COC(=O)[C@@H]2[C@H](/C=C(/F)C(=O)OC(C)(C)C)C2(C)C)c(C(F)(F)F)c1 [Example 45, [1-(2-propynyl)-3-trifluoromethyl)-1H-pyrrol-4-yl]methyl (1R,cisΔE) 2,2-dimethyl-3-[2-fluoro-3-oxo-3-tertbutoxypropenyl]-cyclopropane carboxylate]
- KT 50 (house flies): 6.1 min
- lethal concentration 50 (LC 50) [1]: 6.4 mg/m^2
- LD 50 (Tetranychus urticae): 264 mg/hl
